The source of these data is ChEMBL document CHEMBL5050851, “Compounds that induce ferroptic cell death” (2020).

The test system of one assay is ES-2. As to the kind of experiment: Antiproliferative activity against human ES2 cells assessed as cell death after 72 hrs by Alamar blue viability assay. The assay is classed as functional, cell-based. The following applies: ES-2, 72 h. For orientation: The colour change of resazurin is a common sign of viable cells or microbes.
The test system of the next assay is HCT-116. Description: Antiproliferative activity against human HCT-116 cells assessed as cell death after 72 hrs by Alamar blue viability assay. The assay is classed as functional, cell-based. The following applies: HCT-116, 72 h.

Some results are limits rather than exact numbers.

Turning to `C=CC(=C)[C@@H]1C[C@@H](OC(=O)CCl)[C@]2(C)[C@H](C)CC[C@]3(C[C@H](O)C(=O)[C@]32O)[C@H]1C`, in the assay on ES-2, the IC50 was 6.7 µM.
For the molecule `C[C@@H]1CC[C@@]23C[C@H](O)C(=O)[C@@]2(O)[C@]1(C)[C@H](OC(=O)CCl)C[C@@H](C1=CCC2C(=O)N(c4ccccc4)C(=O)C2C1)[C@@H]3C` (stereo partly drawn), the IC50 was determined as 2.5 µM in the assay with ES-2 and 6.4 µM in the assay with HCT-116.
Consider `CC(=O)OCC(=O)O[C@@H]1C[C@@H](C2=CCn3c(=O)n(-c4ccccc4)c(=O)n3C2)[C@H](C)[C@@]23CC[C@@H](C)[C@]1(C)[C@]2(O)C(=O)[C@@H](O)C3`, for which the IC50 with ES-2 and with HCT-116 was above 100 µM in each case.
`C[C@@H]1CC[C@@]23C[C@H](O)C(=O)[C@@]2(O)[C@]1(C)[C@H](OC(=O)CI)C[C@@H](C1=CCn2c(=O)n(-c4ccccc4)c(=O)n2C1)[C@@H]3C`: the figures for the half-inhibitory concentration (IC50) with ES-2 and in the assay on HCT-116 were 0.24 µM and 0.66 µM, respectively.
As for `CO[C@H]1C[C@@]23CC[C@@H](C)[C@@](C)([C@H](OC(=O)c4ccco4)C[C@@H](C4=CCn5c(=O)n(-c6ccccc6)c(=O)n5C4)[C@@H]2C)[C@]3(O)C1=O`, the half-maximal inhibitory concentration (IC50) in the assay on ES-2 and in the assay on HCT-116 was above 100 µM each time.
`CO[C@H]1C[C@@]23CC[C@@H](C)[C@@](C)([C@H](OC(=O)C(Cl)Cl)C[C@@H](C4=CCn5c(=O)n(-c6ccccc6)c(=O)n5C4)[C@@H]2C)[C@]3(O)C1=O`: the IC50 with ES-2 and with HCT-116 was above 100 µM throughout.
With `CO[C@H]1C[C@@]23CC[C@@H](C)[C@@](C)([C@H](OC(C)=O)C[C@@H](C4=CCn5c(=O)n(-c6ccccc6)c(=O)n5C4)[C@@H]2C)[C@]3(O)C1=O`, the IC50 with ES-2 and with HCT-116 was above 100 µM in each case.

Broadly, the IC50 is the concentration that gives 50% inhibition.
